Each structure is given as a SMILES string.

A word on the melting point: it is the temperature, or range, at which the solid turns liquid.

Molecule `COc1cc(NS(=O)(=O)c2ccc(Cl)s2)c(C(=O)Nc2ccc(S(=O)(=O)N(C)Cc3cccnc3)cc2)cc1OC.Cl` displayed a melting point of 214 °C.

`O=C(Nc1ccc(S(=O)(=O)N2CCSCC2)cc1)c1cc(Cl)ccc1NS(=O)(=O)c1ccc(Cl)cc1` [Example 15, 5-Chloro-2-(4-chloro-phenylsulfonylamino)-N-(4-(thiomorpholine-4-sulfonyl)-phenyl)-benzamide] showed a melting point of 246 °C. The figure for `Cc1ccc(S(=O)(=O)Nc2ccc(Cl)cc2C(=O)Nc2ccc(S(=O)(=O)N3CCOCC3)cc2)cc1` [Example 57, 5-Chloro-N-(4-(morpholine-4-sulfonyl)-phenyl)-2-(4-methyl-phenylsulfonylamino)-benzamide] is 214 °C; for `O=C(Nc1ccc(S(=O)(=O)N2CCS(=O)(=O)CC2)cc1)c1cc(Cl)ccc1NS(=O)(=O)c1ccc(Cl)cc1` [Example 92, 5-Chloro-2-(4-chloro-phenylsulfonylamino)-N-(4-(1,1-dioxo-thiomorpholine-4-sulfonyl)-phenyl)-benzamide] it is 182 °C.
